Read-outs that look alike come from different tables or passages of the source.
Columns and labels:
Assay type in all cases: cell-based
platelets [1] = assay: mean platelet component (MPC) of stored blood samples, ADVIA 2120 Hematology System; details: for mean platelet component (MPC), Average: Table 1, stored at 22° C.
Method: The ADVIA® 120 Hematology System is an automated analyzer that, in addition to measuring the conventional hematologic indices, also provides some activation-related information about platelets. Macey M G et al., Cytometry 38:250-55 (1999). It measures the intensity of light scattered by platelets at two different cone angles (2-3° and 5-15° and from the paired values computes platelet volume (PV) and platelet component (PC) concentration on a cell-by-cell basis. These values are then averaged to provide the Mean Platelet Component (MPC).
(§1) The samples were subjected to gently agitation, and were stored either at room temperature (22° C.) or at 4° C., and mean platelet component and mean platelet volume values were obtained at the designated time points using the ADVIA® 2120 system.
(§2) Blood from healthy controls were also collected into Vacutainer® K3E 4.5 mL K3EDTA sample collection tubes (Cat. No. 367654, Becton, Dickinson and Company, Franklin Lakes, N.J.) and combined with the remaining STABILE-1 reagents (citrate-phosphate-dextrose, wortmanin, tyrphostin) to yield the prescribed concentrations. These samples were stored either at room temperature (22° C.) or at 4° C., and mean platelet component values were obtained at the designated time points using the ADVIA® 2120 system.
(§3) Blood from healthy controls were also collected into Vacutainer® K3E 4.5 mL K3EDTA sample collection tubes (Cat. No. 367654, Becton, Dickinson and Company, Franklin Lakes, N.J.) and combined with the remaining STABILE-1 reagents (citrate-phosphate-dextrose, wortmanin, tyrphostin) to yield the prescribed concentrations. […] Mean platelet component and mean platelet volume were assessed at 30 min, 6 hr, and 24 hr following blood collection/initial combination with storage reagents using the ADVIA® 2120 system (Bayer AG, Leverkusen, Germany). Flow cytometry techniques were used to identify platelet activation proteins, and the impact of these strategies on ultrastructural morphology of platelets was morphometrically evaluated using electron microscopy (EM). The values obtained at t=0+30 (i.e., 30 min after blood collection and the initial combination with the storage reagents) were designated as baseline values to which values observed at t=6 hr and t=24 hr were compared.
(§4) Blood from healthy controls were carefully collected, and mean platelet component was assessed upon combination of blood with the respective storage reagents, using the ADVIA® 2120 system (Bayer AG, Leverkusen, Germany), and again at 1 hr, 3 hr, 6 hr, and 24 hr following the initial combination with storage reagents. All samples were stored at room temperature (22° C.).
as §4, with “Experiments were conducted in order to assess the effect of varying the concentration of the citrate-phosphate-dextrose component in the STABILE-1 storage medium on the mean platelet component. Blood” for “Blood”

platelets [2] = assay: morphometric evaluation of α-granules per platelet and platelet morphology, electron microscopy
Method: as §3

platelets [3] = details: for MPV, increase in % vs 30 min baseline: n = 8; for mean platelet volume (MPV), Average: Table 4, stored at 22° C.
Method: as §1
as §2, with “volume was assessed” for “values were obtained”
as §3, with “(EM).” for “(EM). The values obtained at t=0+30 (i.e., 30 min after blood collection and the initial combination with the storage reagents) were designated as baseline values to which values observed at t=6 hr and t=24 hr were compared.”

[4] = test system: P-selectin (also known as CD62P); assay: P-selectin expression of stored platelets, flow cytometry; details: 22° C., n = 8
Method: as §3

platelets [5] = assay: morphometric evaluation of dense bodies per platelet, electron microscopy whole mounts; details: * = statistically significant at the 95% confidence level
Text: In accordance with published methods, platelet whole mounts were viewed “by transparence”, i.e., while supported on polyvinal formal resin, and dense bodies were counted.
The plot depicts mean values with 95% LSD intervals.

O=C(O)CN(CCN(CC(=O)O)CC(=O)O)CC(=O)O [EDTA, Ethylenediaminetetraacetic acid]
MPC (platelets [1]; 30 min (baseline), 22° C., n = 8): 259 ± 6.6 g/L
MPC, reduction in % vs 30 min baseline (platelets [1]; 6 hours, 22° C., n = 8): −9%
MPC, reduction in % vs 30 min baseline (platelets [1]; 24 hours, 22° C., n = 8): −21%
mean platelet component (MPC), Average (platelets [1]; 0 min, n 12): 260.83
mean platelet component (MPC), Average (platelets [1]; 30 min, n 15): 258.07
mean platelet component (MPC), Average (platelets [1]; 1 h, n 15): 252.00
mean platelet component (MPC), Average (platelets [1]; 3 h, n 15): 239.07
mean platelet component (MPC), Average (platelets [1]; 6 h, n 15): 229.87
mean platelet component (MPC), Average (platelets [1]; 24 h, n 15): 201.07
mean platelet component (platelets [1]; Table 8, 0, stored at room temperature (22° C.)): 278
mean platelet component (platelets [1]; Table 8, 1 hr, stored at room temperature (22° C.)): 273
mean platelet component (platelets [1]; Table 8, 3 hr, stored at room temperature (22° C.)): 265
mean platelet component (platelets [1]; Table 8, 6 hr, stored at room temperature (22° C.)): 268
mean platelet component (platelets [1]; Table 8, 24 hr, stored at room temperature (22° C.)): 233
mean platelet component (platelets [1]; Table 10, 0, stored at room temperature (22° C.)): 258
mean platelet component (platelets [1]; Table 10, 1 hr, stored at room temperature (22° C.)): 247
mean platelet component (platelets [1]; Table 10, 3 hr, stored at room temperature (22° C.)): 235
mean platelet component (platelets [1]; Table 10, 6 hr, stored at room temperature (22° C.)): 225
mean platelet component (platelets [1]; Table 10, 24 hr, stored at room temperature (22° C.)): 190
mean platelet component (platelets [1]; Table 11, 0, stored at room temperature (22° C.)): 288
mean platelet component (platelets [1]; Table 11, 1 hr, stored at room temperature (22° C.)): 282
mean platelet component (platelets [1]; Table 11, 3 hr, stored at room temperature (22° C.)): 271
mean platelet component (platelets [1]; Table 11, 6 hr, stored at room temperature (22° C.)): 269
mean platelet component (platelets [1]; Table 11, 24 hr, stored at room temperature (22° C.)): 227
decrease in the mean platelet component (platelets [1]; six hours after initial combination (t=0), storage at 22° C., Tables 1 and 2): ~12%
decrease of MPC values (platelets [1]; t=5.5 hr after baseline measurements, room temperature / 22° C.): 9%
number of α-granules per platelet section (platelets [2]; 6 h): 6.4±2.3
number of α-granules per platelet section (platelets [2]; 24 h): 3.5±1.4
number of α-granules per platelet as compared with t=0 (platelets [2]; FIG. 4A, six hours of storage, 22° C.): statistical reduction
number of α-granules per platelet section (platelets [2]; baseline): 12.3±6.07
MPV (platelets [3]): 8.3 ± 0.2 fL
increase of MPV values (platelets [3]; 5.5 hours after baseline, 22° C.): 10.2%
MPV, increase in % vs 30 min baseline (platelets [3]; 6 hours, 22° C.): +10.2%
MPV, increase in % vs 30 min baseline (platelets [3]; 24 hours, 22° C.): +23%
mean platelet volume (MPV), Average (platelets [3]; 0 min, n 12): 8.36
mean platelet volume (MPV), Average (platelets [3]; 30 min, n 15): 8.41
mean platelet volume (MPV), Average (platelets [3]; 1 h, n 15): 8.65
mean platelet volume (MPV), Average (platelets [3]; 3 h, n 15): 9.22
mean platelet volume (MPV), Average (platelets [3]; 6 h, n 15): 9.53
mean platelet volume (MPV), Average (platelets [3]; 24 h, n 15): 10.63
increase in the mean platelet volume (platelets [3]; six hours after initial combination (t=0), storage at 22° C., Tables 4 and 5): ~12%
P-selectin, % of positive platelets ([4]; 30 min (baseline)): 2.1%
P-selectin, % of positive platelets ([4]; 6 hours): 13.9%
P-selectin, % of positive platelets ([4]; 24 hours): 40.8%
Difference, mean number of dense bodies per platelet (platelets [5]; Contrast EDTA 0 hr vs. stored 1 hr): −1.26*
Difference, mean number of dense bodies per platelet (platelets [5]; Contrast EDTA 0 hr vs. stored 24 hr): 2.1*
Difference, mean number of dense bodies per platelet (platelets [5]; Contrast EDTA 1 hr vs. EDTA 6 hr): 1.9*
